Assay results from patent US20070134221A1, “Stabilizing peptides” (priority 2003, published 2007).
Read-outs that look alike come from different tables or passages of the source.

Legend:
HIV-1 Case C 7/86 = assay type: cell-based; details: human PBMC, 5-7 days, p24 ELISA; second line of the isolate = second separate assay; read-out: Antiviral activity IC50, HIV-1 Case C 7/86
Method: (§1) PBMC Infectivity Assay. PBMC were isolated from healthy blood donors by Ficoll-Hypaque centrifugation and then stimulated for 2-3 days with phytohemagglutinin (5 μg/ml) and interleukin-2 (100 U/ml). The inhibition assay was performed essentially as described previously (Trkola, A., T. Ketas, V. N. KewalRamani, F. Endorf, J. M. Binley, H. Katinger, J. Robinson, D. R. Littman, and J. P. Moore. 1998. Neutralization sensitivity of human immunodeficiency virus type 1 primary isolates to antibodies and CD4-based reagents is independent of co-receptor usage. J. Virol. 72:1876-1885; Trkola, A., W. A. Paxton, S. P. Monard, J. A. Hoxie, M. A. Siani, D. A. Thompson, L. Wu, C. R. Mackay, R. Horuk, and J. P. Moore. 1998. Genetic subtype-independent inhibition of human immunodeficiency virus type 1 replication by CC and CXC chemokines. J. Virol. 72:396-404).
(§2) Briefly, the virus inoculum was adjusted to 400-1,000 TCID50/ml in assay medium (RPMI 1640, 10% FCS, 100 U of interleukin-2 per ml, glutamine, and peptides), and 50 μl aliquots were incubated with serial dilutions of the peptide inhibitors (50 μl) for 1 h at 37° C. […] RBMC (4×10^5 in 100 μl of medium) were then added. The final concentration of virus in the cultures was 20-50 TCID50/well, corresponding to 100-250 TCID50/ml. Peptides, virus, and cells were then incubated for 5-7 days at 37° C., and the extent of viral replication was determined by p24 antigen ELISA of the culture supernatants. The viral inocula in 50% tissue culture infectious doses (TCID50) were 400-1000/ml.

HIV-1 CM.235 = assay type: cell-based; details: human PBMC, 5-7 days, p24 ELISA; second line of the isolate = second separate assay; read-out: Antiviral activity IC50, HIV-1 CM.235
Method: as §1, §2

HIV-1 UG270 = assay type: cell-based
Method: as §1, §2

HIV-1 94ZW103 = assay type: cell-based
Method: as §1, §2

HIV-1 JFRL = assay type: cell-based
Method: as §1, §2

HIV-1 DJ258 = assay type: cell-based; details: human PBMC, 5-7 days, p24 ELISA; second line of the isolate = second separate assay; read-out: Antiviral activity IC50, HIV-1 DJ258
Method: as §1, §2

HIV-1 NL4-3 = assay type: cell-based
Method: as §1, §2

HIV-1 BZ162 = assay type: cell-based; details: human PBMC, 5-7 days, p24 ELISA; second line of the isolate = second separate assay; read-out: Antiviral activity IC50, HIV-1 BZ162
Method: as §1, §2

[1] = Circular dichroism spectroscopy; assay type: physicochemical; details: 10 μM peptide, 50 mM Tris-HCl (pH 8.0), 10 mM NaCl, 4° C.
Method: CD measurements of the peptides were carried out on an Aviv 62 DS circular dichroism spectrometer (Aviv Biomedical, Lakewood, N.J.). Peptides were dissolved in 50 mM Tris-HCl (pH 8.0) and 10 mM NaCl with a total peptide concentration of 10 μM. The wavelength dependence of molar ellipticity, [θ], was monitored at 4° C. as the average of five scans, using a five-second integration time at 1.0 nm wavelength increments. Spectra were baseline-corrected against the cuvette with buffer alone. […] Thermal stability was determined by monitoring the change in CD signal at 222 nm as a function of temperature, and thermal melts were performed in two-degree intervals with a two-minute equilibration at the desired temperature, and an integration time of 30 s. Reversibility was checked by repeated scans.

[2] = human PBMC, 5-7 days, p24 ELISA, second line of the isolate = second separate assay, read-out: Antiviral activity IC50, HIV-1 UG270
[3] = human PBMC, 5-7 days, p24 ELISA, second line of the isolate = second separate assay, read-out: Antiviral activity IC50, HIV-1 94ZW103
[4] = human PBMC, 5-7 days, p24 ELISA, second line of the isolate = second separate assay, read-out: Antiviral activity IC50, HIV-1 JFRL
[5] = human PBMC, 5-7 days, p24 ELISA, second line of the isolate = second separate assay, read-out: Antiviral activity IC50, HIV-1 NL4-3

Compound	IC50 (HIV-1 Case C 7/86)	IC50 (HIV-1 CM.235)	IC50 (HIV-1 UG270; [2])	IC50 (HIV-1 94ZW103; [3])	IC50 (HIV-1 JFRL; [4])	IC50 (HIV-1 DJ258)	IC50 (HIV-1 NL4-3; [5])	IC50 (HIV-1 BZ162)	Structure in solution by circular dichroism [1]	IC50 (HIV-1 UG270; UG270)	IC50 (HIV-1 94ZW103; 94ZW103)	IC50 (HIV-1 JFRL; JFRL)	IC50 (HIV-1 NL4-3; NL4-3)
CC[C@H](C)[C@H](NC(=O)[C@H](CCCCN)NC(=O)[C@@H](NC(=O)[C@H](CC(N)=O)NC(=O)[C@H](Cc1ccccc1)NC(=O)[C@H](Cc1c[nH]c2ccccc12)NC(=O)[C@H](CC(N)=O)NC(=O)[C@H](Cc1c[nH]c2ccccc12)NC(=O)[C@H](CC(C)C)NC(=O)[C@H](CO)NC(=O)[C@H](C)NC(=O)[C@H](Cc1c[nH]c2ccccc12)NC(=O)[C@H](CCCCN)NC(=O)[C@H](CC(=O)O)NC(=O)[C@H](CC(C)C)NC(=O)[C@H](CCC(=O)O)NC(=O)[C@H](CC(C)C)NC(=O)[C@H](CC(C)C)NC(=O)[C@H](CCC(=O)O)NC(=O)[C@H](CCC(N)=O)NC(=O)[C@H](CCC(=O)O)NC(=O)[C@H](CC(N)=O)NC(=O)[C@H](CCCCN)NC(=O)[C@H](CCC(=O)O)NC(=O)[C@H](CCC(N)=O)NC(=O)[C@H](CC(C)C)NC(=O)[C@H](CC(N)=O)NC(=O)[C@H](CCC(N)=O)NC(=O)[C@H](CO)NC(=O)[C@H](CCC(=O)O)NC(=O)[C@H](CCC(=O)O)NC(=O)[C@@H](NC(=O)[C@H](CC(C)C)NC(=O)[C@H](CO)NC(=O)[C@H](Cc1c[nH]cn1)NC(=O)[C@@H](NC(=O)[C@H](CC(C)C)NC(=O)[C@H](CO)NC(=O)[C@@H](NC(=O)[C@H](Cc1ccc(O)cc1)NC(=O)[C@H](CC(N)=O)NC(=O)[C@H](CC(N)=O)NC(=O)[C@@H](NC(=O)[C@H](CCC(=O)O)NC(=O)[C@H](CCCNC(=N)N)NC(=O)[C@H](CC(=O)O)NC(=O)[C@H](Cc1c[nH]c2ccccc12)NC(=O)[C@H](CCC(=O)O)NC(=O)[C@H](CCSC)NC(=O)[C@H](Cc1c[nH]c2ccccc12)NC(=O)[C@@H](NC(=O)[C@@H](NC(=O)[C@H](Cc1c[nH]cn1)NC(=O)[C@@H](N)CC(N)=O)[C@@H](C)O)[C@@H](C)O)[C@@H](C)CC)[C@@H](C)O)[C@@H](C)CC)[C@@H](C)CC)[C@@H](C)CC)C(=O)N[C@@H](CCCCN)C(=O)O [Peptide C52F, NHTTWMEWDREINNYTSLIHSLIEESQNLQEKNEQELLELDKWASLWNWFNI-KIK]	49 nM	11 nM	68 nM	4 nM	5 nM	9 nM	23 nM	2 nM	forms an α-helical structure in solution	–	–	–	–
CC[C@H](C)[C@H](NC(=O)[C@H](CCCCN)NC(=O)[C@@H](NC(=O)[C@H](CC(N)=O)NC(=O)[C@H](Cc1ccccc1)NC(=O)[C@H](Cc1c[nH]c2ccccc12)NC(=O)[C@H](CC(N)=O)NC(=O)[C@H](Cc1c[nH]c2ccccc12)NC(=O)[C@H](CC(C)C)NC(=O)[C@H](CO)NC(=O)[C@H](C)NC(=O)[C@H](Cc1c[nH]c2ccccc12)NC(=O)[C@H](CCCCN)NC(=O)[C@H](CC(=O)O)NC(=O)[C@H](CC(C)C)NC(=O)[C@H](CCC(=O)O)NC(=O)[C@H](Cc1ccccc1)NC(=O)[C@H](CC(C)C)NC(=O)[C@H](CCC(=O)O)NC(=O)[C@H](CCC(N)=O)NC(=O)[C@H](CCC(=O)O)NC(=O)[C@H](C)NC(=O)[C@H](CCCCN)NC(=O)[C@H](CCC(=O)O)NC(=O)[C@H](CCC(N)=O)NC(=O)[C@H](CC(C)C)NC(=O)[C@H](CC(N)=O)NC(=O)[C@H](CCC(N)=O)NC(=O)[C@H](CO)NC(=O)[C@H](CCC(=O)O)NC(=O)[C@H](CCC(=O)O)NC(=O)[C@H](Cc1ccccc1)NC(=O)[C@H](CC(C)C)NC(=O)[C@H](CO)NC(=O)[C@H](Cc1c[nH]cn1)NC(=O)[C@@H](NC(=O)[C@H](CC(C)C)NC(=O)[C@H](CO)NC(=O)[C@@H](NC(=O)[C@H](Cc1ccc(O)cc1)NC(=O)[C@H](CC(N)=O)NC(=O)[C@H](CC(N)=O)NC(=O)[C@@H](NC(=O)[C@H](CCC(=O)O)NC(=O)[C@H](CCCNC(=N)N)NC(=O)[C@H](CC(=O)O)NC(=O)[C@H](Cc1c[nH]c2ccccc12)NC(=O)[C@H](CCC(=O)O)NC(=O)[C@H](CCSC)NC(=O)[C@H](Cc1c[nH]c2ccccc12)NC(=O)[C@@H](NC(=O)[C@@H](NC(=O)[C@H](Cc1c[nH]cn1)NC(=O)[C@@H](N)CC(N)=O)[C@@H](C)O)[C@@H](C)O)[C@@H](C)CC)[C@@H](C)O)[C@@H](C)CC)[C@@H](C)CC)C(=O)N[C@@H](CCCCN)C(=O)O [Peptide C52L, NHTTWMEWDREINNYTSLIHSLFEESQNLQEKAEQELFELDKWASLWNWFNI-KIK]	17 nM	12 nM	61 nM	3 nM	6 nM	11 nM	20 nM	3 nM	forms an α-helical structure in solution	–	–	–	–
Enfuvirtide	–	–	–	–	–	–	–	–	–	139 nM	18 nM	10 nM	44 nM
